Assay results: US10538512B2, “Aminoacylindazole immunomodulators for treatment of autoimmune diseases” (The Rockefeller University, priority 2016, dated 2020)

What was measured:
Human FXIIa = target: T1, Human FXIIa (Homo sapiens, UniProt P00748); assay: Factor XIIa (FXIIa) inhibitory activity, chromogenic substrate assay; format: biochemical; details: Human FXIIa 12.5 nM, Pefachrome XIIa 400 μM, 10 min preincubation
T1 construct: active coagulation factor XII (FXIIa); purchased Enzyme Research Labs
T1 sequence (P00748 373-615 limits assumed): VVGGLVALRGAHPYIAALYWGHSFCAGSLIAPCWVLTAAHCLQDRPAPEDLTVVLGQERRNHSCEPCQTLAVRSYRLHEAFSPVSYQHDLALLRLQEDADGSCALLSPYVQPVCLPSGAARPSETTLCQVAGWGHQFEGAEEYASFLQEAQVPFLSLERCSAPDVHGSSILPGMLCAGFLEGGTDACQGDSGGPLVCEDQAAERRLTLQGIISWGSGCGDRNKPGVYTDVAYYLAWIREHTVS
T1 sequence (P00748 20-372 partner limits assumed): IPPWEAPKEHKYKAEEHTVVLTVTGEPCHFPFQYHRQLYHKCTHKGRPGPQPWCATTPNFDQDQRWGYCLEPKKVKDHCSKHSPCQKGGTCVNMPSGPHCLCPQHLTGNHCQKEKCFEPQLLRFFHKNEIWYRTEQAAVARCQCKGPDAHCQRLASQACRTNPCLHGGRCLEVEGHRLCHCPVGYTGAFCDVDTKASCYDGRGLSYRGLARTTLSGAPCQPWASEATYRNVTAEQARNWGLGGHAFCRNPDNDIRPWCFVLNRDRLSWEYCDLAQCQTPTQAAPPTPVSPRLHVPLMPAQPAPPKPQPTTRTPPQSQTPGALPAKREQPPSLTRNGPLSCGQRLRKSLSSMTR
Outline: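 Buffer was 0.5× HBSS with 25 mM HEPES pH 7.4 and 0.5× TBS-Tween 0.05%. Enzyme and compound (about 1–100 μM) were preincubated 10 min at room temperature, then Pefachrome XIIa was added at 400 μM final. Substrate cleavage was followed as the rate of A405 change at 37 °C.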

Human alpha-thrombin = target: T2, Human alpha-thrombin (Homo sapiens, UniProt P00734); assay: Thrombin counterscreen for selectivity, fluorogenic substrate assay; format: biochemical; details: Human alpha-thrombin 12.5 nM, Boc-Val-Pro-Arg-AMC 20 μM, 10 min preincubation
T2 construct: Human alpha-thrombin (Enzyme Research Labs); purchased Enzyme Research Labs
Description: Counterscreens for Selectivity:
In a 96-well white opaque plate, 80 μl of assay buffer was added to each well. Test compounds were added, and serially diluted as above, to generate a concentration range of approximately 1-100 μM. […] 80 μl of this enzyme solution was added to the assay wells. The enzyme/compound mixtures were incubated for 10 minutes at room temperature. Fluorogenic substrate (Boc-Val-Pro-Arg-7-amido-4-methylcoumarin; Sigma) was added to assay wells at a final concentration of 20 μM. The assay plate was spun for 1 minute at 1500 g and then read at 37° C. in a SpectraMax M2 plate reader (λex=380 nm and λem=460 nm). Activity was quantified as the rate of change in fluorescence, which corresponds to the rate of substrate cleavage.

Compound | IC50 (Human FXIIa) | IC50 (Human alpha-thrombin)
CCc1ccccc1C(=O)n1nc(N)c2c1CCCC2 [Example 152] | 25 µM | > 100 µM
CO[C@@H]1CCc2nn(C(=O)[C@@H]3CCNc4ccc(F)cc43)c(N)c2C1 (single isomer, unassigned) [Example 180, ((5R*)-3-amino-5-methoxy-4,5,6,7-tetrahydroindazol-2-yl)((4R*)-6-fluoro-1,2,3,4-tetrahydroquinolin-4-yl)methanone] | 0.09 µM | > 80 µM
Nc1c2c(nn1C(=O)c1c[nH]c3ccccc13)CCCC2 [Example 42, (3-amino-4,5,6,7-tetrahydroindazol-2-yl)(1H-indol-3-yl)methanone] | 11 µM | > 100 µM
CCc1cc2c(C(=O)n3nc(N)c4c3CCCC4)cccc2n1C (single isomer, unassigned) [Example 67, (3-amino-4,5,6,7-tetrahydroindazol-1-yl)(2-ethyl-1-methyl-1H-indol-4-yl)methanone] | > 50 µM | > 50 µM
O=C(Nc1[nH]nc2c1CCCC2)C1OCCc2ccccc21 (stereo not drawn) [Example 14, N-(4,5,6,7-tetrahydro-2H-indazol-3-yl)isochroman-1-carboxamide] | > 10 µM | > 10 µM
Nc1c2c(nn1C(=O)[C@@H]1CCCc3[nH]c(Cl)cc31)CC[C@H](O)C2 (single isomer, unassigned) [Example 128, ((5S*)-3-amino-5-hydroxy-4,5,6,7-tetrahydroindazol-2-yl)((4R*)-2-chloro-4,5,6,7-tetrahydro-1H-indol-4-yl)methanone] | 30 µM | > 65 µM
CC(C)n1ccc2c(C(=O)n3nc4c(c3N)CCCC4)cccc21 [Example 29, (3-amino-4,5,6,7-tetrahydroindazol-2-yl)(1-isopropyl-1H-indol-4-yl)methanone] | 0.15 µM | > 50 µM
Nc1c2c(nn1C(=O)c1cccc3[nH]ccc13)CCCC2 (single isomer, unassigned) [Example 1, (3-Amino-4,5,6,7-tetrahydro-2H-indazol-2-yl)(1H-indol-4-yl)methanone] | 0.1 µM | 25 µM
Nc1c2c(nn1C(=O)[C@@H]1CCNc3c(Cl)cccc31)C[C@H](O)CC2 (single isomer, unassigned) [Example 210, ((6R*)-3-amino-6-hydroxy-4,5,6,7-tetrahydroindazol-2-yl)((4R*)-8-chloro-1,2,3,4-tetrahydroquinolin-4-yl)methanone] | 3.3 µM | > 100 µM
Cc1csc(C)c1C(=O)n1nc(N)c2c1CCCC2 (single isomer, unassigned) [Example 17, (3-amino-4,5,6,7-tetrahydroindazol-1-yl)(2,4-dimethylthiophen-3-yl)methanone] | > 100 µM | > 100 µM
Nc1nn(C(=O)c2cccc3[nH]c(C4CC4)cc23)c2c1CCCC2 (single isomer, unassigned) [Example 54, (3-amino-4,5,6,7-tetrahydroindazol-1-yl)(2-cyclopropyl-1H-indol-4-yl)methanone] | 30 µM | > 85 µM
Nc1nn(C(=O)c2cccc3c2CC(=O)N3)c2c1CCCC2 (single isomer, unassigned) [Example 65, 4-(3-amino-4,5,6,7-tetrahydro-1H-indazole-1-carbonyl)indolin-2-one] | > 100 µM | > 100 µM
Nc1c2c(nn1C(=O)[C@H]1CCNc3ccc(F)cc31)CC[C@H](F)C2 (single isomer, unassigned) [Example 140, ((5S*)-3-amino-5-fluoro-4,5,6,7-tetrahydroindazol-2-yl)((4S*)-6-fluoro-1,2,3,4-tetrahydroquinolin-4-yl)methanone] | 0.2 µM | > 60 µM
Cc1cc2c(C(=O)N3N=C(N)C4CCCCC43)cccc2[nH]1 (stereo not drawn) [Example 10, (3-amino-3a,4,5,6,7,7a-hexahydroindazol-1-yl)(2-methyl-1H-indol-4-yl)methanone] | 90 µM | > 100 µM
CCc1cc2c(C(=O)n3nc(N)c4c3CCCC4)cccc2n1CC (single isomer, unassigned) [Example 69, (3-amino-4,5,6,7-tetrahydroindazol-1-yl)(1,2-diethyl-1H-indol-4-yl)methanone] | 35 µM | > 100 µM
CCCn1ccc2c(C(=O)n3nc4c(c3N)CCCC4)cccc21 [Example 36, (3-amino-4,5,6,7-tetrahydroindazol-2-yl)(1-propyl-1H-indol-4-yl)methanone] | 0.2 µM | > 80 µM
CCN1CCC(C(=O)n2nc3c(c2N)CCCC3)c2ccccc21 (single isomer, unassigned) [Example 74, (3-amino-4,5,6,7-tetrahydroindazol-2-yl)(1-ethyl-1,2,3,4-tetrahydroquinolin-4-yl)methanone] | 0.5 µM | > 100 µM
Nc1c2c(nn1C(=O)c1cccc3[nH]cnc13)CCCC2 [Example 48, (3-amino-4,5,6,7-tetrahydroindazol-2-yl)(1H-benzo[d]imidazol-4-yl)methanone] | > 100 µM | > 100 µM
CCn1ccc2c(C(=O)n3nc4c(c3N)CCCC4)cccc21 [Example 28, (3-amino-4,5,6,7-tetrahydroindazol-2-yl)(1-ethyl-1H-indol-4-yl)methanone] | 0.06 µM | 36 µM
Nc1c2c(nn1C(=O)[C@@H]1CCNc3ccc(F)cc31)CC[C@H](O)C2 (relative stereo) [Example 134, ((5S*)-3-amino-5-hydroxy-4,5,6,7-tetrahydro-1H-indazol-2-yl)((4R*)-6-fluoro-1,2,3,4-tetrahydroquinolin-4-yl)methanone] | 1.2 µM | > 75 µM
Nc1c2c(nn1C(=O)C1OCCc3ccccc31)CCCC2 (single isomer, unassigned) [Example 13, (3-Amino-4,5,6,7-tetrahydroindazol-2-yl)(isochroman-1-yl)methanone] | 5.6 µM | 77 µM
Cc1c2c(nn1C(=O)c1cccc3[nH]ccc13)CCCC2 (single isomer, unassigned) [Example 3, (1H-Indol-4-yl)(3-methyl-4,5,6,7-tetrahydroindazol-2-yl)methanone] | 5 µM | 33 µM
Nc1nn(C(=O)c2cccc3[nH]ncc23)c2c1CCCC2 [Example 157] | 30 µM | > 100 µM
CN1CCC(C(=O)n2nc3c(c2N)CCCC3)c2ccccc21 (single isomer, unassigned) [Example 73, (R*)-(3-amino-4,5,6,7-tetrahydroindazol-2-yl)(1-methyl-1,2,3,4-tetrahydroquinolin-4-yl)methanone] | > 50 µM | > 50 µM
COC1CCc2c(c(N)nn2C(=O)c2cccc3[nH]c(C)cc23)C1 (stereo not drawn) [Example 120, (3-amino-5-methoxy-4,5,6,7-tetrahydro-2H-indazol-1-yl)(2-methyl-1H-indol-4-yl)methanone] | 10 µM | > 80 µM
CCn1cc(C(=O)n2nc3c(c2N)CCCC3)c2ccccc21 [Example 43, (3-amino-4,5,6,7-tetrahydroindazol-2-yl)(1-ethyl-1H-indol-3-yl)methanone] | 7.5 µM | > 100 µM
Cn1ccc2c(C(=O)n3nc4c(c3N)CCCC4)cccc21 (single isomer, unassigned) [Example 7, (3-Amino-4,5,6,7-tetrahydroindazol-2-yl)(1-methyl-1H-indol-4-yl)methanone] | 0.15 µM | 30 µM
Nc1c2c(nn1C(=O)[C@H]1CCNc3ccc(F)cc31)CC[C@H](N)C2 (stereo in doubt) [Example 192, ((5S*)-3,5-diamino-4,5,6,7-tetrahydroindazol-2-yl)((4S*)-6-fluoro-1,2,3,4-tetrahydroquinolin-4-yl)methanone] | 0.08 µM | > 90 µM
CCn1c(C)cc2c(C(=O)n3nc4c(c3N)CCCC4)cccc21 [Example 38, (3-amino-4,5,6,7-tetrahydroindazol-2-yl)(1-ethyl-2-methyl-1H-indol-4-yl)methanone] | 0.04 µM | 44 µM
Nc1c2c(nn1C(=O)C1CCCc3ccccc31)CCCC2 (single isomer, unassigned) [Example 6, (R*)-(3-amino-4,5,6,7-tetrahydroindazol-2-yl)(1,2,3,4-tetrahydronaphthalen-1-yl)methanone] | ≥ 50 µM | > 50 µM
